Data on 13 molecules can be found in US10457687B2, “Aminoacid derivatives, a process for their preparation and pharmaceutical compositions containing them” (LES LABORATOIRES SERVIER, priority 2015, dated 2019).

As a reminder, the IC50 is the point on the concentration scale where inhibition reaches its midpoint.

Mcl-1 protein, sequence (Q07820 whole entry): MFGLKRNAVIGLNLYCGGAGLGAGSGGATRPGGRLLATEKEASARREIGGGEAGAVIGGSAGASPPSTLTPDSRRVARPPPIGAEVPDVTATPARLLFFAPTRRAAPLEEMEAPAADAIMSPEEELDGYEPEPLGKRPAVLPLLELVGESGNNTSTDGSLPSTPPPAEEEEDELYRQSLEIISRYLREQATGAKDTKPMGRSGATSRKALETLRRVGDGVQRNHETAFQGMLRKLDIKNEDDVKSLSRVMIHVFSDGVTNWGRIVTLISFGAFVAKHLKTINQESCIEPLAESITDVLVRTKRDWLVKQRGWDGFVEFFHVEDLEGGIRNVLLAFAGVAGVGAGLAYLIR

The first assay addresses Mcl-1 protein (Homo sapiens, UniProt Q07820). The assay can be described thus: Inhibition of Mcl-1 by the fluorescence polarisation technique (Method 1 or Method 2). The assay is classed as binding. Conditions: fluorescence polarisation, Fluorescein labelled ligand; Method 1 (not underlined) or Method 2 (underlined); read-out: IC50 (μM) Mcl-1 FP. In a few lines:
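Fluorescence polarisation competition of 11-point compound dilutions (5% DMSO final) against fluorescein-labelled ligand for Mcl-1. Method 1: 1 nM ligand, 5 nM protein in 10 mM HEPES, 150 mM NaCl, 0.05% Tween 20, pH 7.4; Method 2: 10 nM ligand, 10 nM protein in 20 mM Na2HPO4, 1 mM EDTA, 50 mM NaCl, pH 7.4.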
In the case of `CCc1sc2ncnc(NC(Cc3ccccc3)C(=O)O)c2c1-c1cccc2c1c(Cl)cn2CCCN1CCN(C)CC1` [Example 241, N-((5Ra)-5-{3-chloro-1-[3-(4-methylpiperazin-1-yl)propyl]-1H-indol-4-yl}-6-ethyl-thieno[2,3-d]pyrimidin-4-yl)-D-phenylalanine], the IC50 was 14.3 µM.
As to `CCc1sc2ncnc(N[C@@H](C(=O)O)c3ccccc3-c3ccccc3)c2c1-c1cccc2ccccc12` (single isomer, unassigned) [Example 188], the IC50 came out at 21.3 µM.
The same measure, in the same setting: in the case of `CCc1sc2ncnc(NC(Cc3ccccc3)C(=O)O)c2c1-c1ccc(OCC(=O)O)c(Cl)c1C` [Example 57, N-{(5Sa)-5-[4-(carboxymethoxy)-3-chloro-2-methylphenyl]-6-ethylthieno[2,3-d]pyrimidin-4-yl}-D-phenylalanine] it was 0.106 µM.
With `CC(C)c1sc2ncnc(N[C@H](Cc3ccccc3)C(=O)O)c2c1-c1cccc2ccccc12` (single isomer, unassigned) [Example 202, N-[5-(naphthalen-1-yl)-6-(propan-2-yl)thieno[2,3-d]pyrimidin-4-yl]-D-phenylalanine], the IC50 amounted to 0.751 µM.
Consider `CC=Cc1sc2ncnc(NC(Cc3ccccc3)C(=O)O)c2c1-c1cccc2ccccc12` [Example 109, N-{(5Ra)-5-(naphthalen-1-yl)-6-[(1E)-prop-1-en-1-yl]thieno[2,3-d]pyrimidin-4-yl}-D-phenylalanine], for which the IC50 amounted to 1.86 µM.
As to `CCc1sc2ncnc(NC(Cc3ccccc3Br)C(=O)O)c2c1-c1cccc(Cl)c1C` [Example 140, 2-bromo-N-[(5Sa)-5-(3-chloro-2-methylphenyl)-6-ethylthieno[2,3-d]pyrimidin-4-yl]-D-phenylalanine], the half-inhibitory concentration (IC50) was 0.208 µM.
The same measure, in the same setting: in the case of `CCc1sc2ncnc(NC(Cc3ccccc3)C(=O)O)c2c1-c1ccc(OCCN2CCOCC2)c(Cl)c1C` [Example 61, N-((5Sa)-5-{3-chloro-2-methyl-4-[2-(morpholin-4-yl)ethoxy]phenyl}-6-ethylthieno[2,3-d]pyrimidin-4-yl)-D-phenylalanine] it was 0.036 µM; in that of `CCc1sc2ncnc(NC(Cc3ccc(O)cc3)C(=O)O)c2c1-c1cccc2ccccc12` [Example 173, N-[6-ethyl-(5Sa)-5-(naphthalen-1-yl)thieno[2,3-d]pyrimidin-4-yl]-D-tyrosine], 6.79 µM.
Take `CCc1sc2ncnc(NC(Cc3cccc(F)c3)C(=O)O)c2c1-c1cccc2ccccc12` [Example 179, N-[6-ethyl-(5Sa)-5-(naphthalen-1-yl)thieno[2,3-d]pyrimidin-4-yl]-3-fluoro-D-phenylalanine]: the IC50 was 0.881 µM.
In the case of `Cc1c(Cl)cccc1-c1c(C2CC2)sc2ncnc(NC(Cc3ccccc3)C(=O)O)c12` [Example 217, N-[(5Sa)-5-(3-chloro-2-methylphenyl)-6-cyclopropyl-thieno[2,3-d]pyrimidin-4-yl]-D-phenylalanine], the half-maximal inhibitory concentration (IC50) is 0.065 µM.
On the same count and under the same terms, in the case of `CCc1sc2ncnc(NC(Cc3ccccc3)C(=O)O)c2c1-c1cc(Cl)c(O)c(Cl)c1C` [Example 53, N-[(5Sa)-5-(3,5-dichloro-4-hydroxy-2-methylphenyl)-6-ethylthieno[2,3-d]pyrimidin-4-yl]-D-phenylalanine] it was 0.02 µM.

The same assay, now with this note: partial inhibitors; @ 50 μM test compound.
For `Cc1c(Cl)cccc1-c1c(C(C)C)sc2ncnc(N[C@@H](Cc3ccccc3)C(=O)O)c12` [Example 218, N-[(5Sa)-5-(3-chloro-2-methylphenyl)-6-(propan-2-yl)thieno[2,3-d]pyrimidin-4-yl]-L-phenylalanine], the “percentage fluorescence polarisation inhibition, Mcl-1 FP” value is reported as 71.5% @ 50 μM.
Regarding `CCc1sc2ncnc(N[C@H](Cc3ccccc3C#N)C(=O)O)c2c1-c1cccc(Cl)c1C` [Example 126, N-[(5Ra)-5-(3-chloro-2-methylphenyl)-6-ethylthieno[2,3-d]pyrimidin-4-yl]-2-cyano-D-phenylalanine], the “percentage fluorescence polarisation inhibition, Mcl-1 FP” value turned out to be 41.2% @ 50 μM.
